Data on three molecules can be found in ChEMBL document CHEMBL1914353, “Utilization of halogen bond in lead optimization: a case study of rational design of potent phosphodiesterase type 5 (PDE5) inhibitors” (J Med Chem, 2011).

The term pIC50 denotes −log10 of the IC50, conventionally taken in molar units. Low readings indicate a large IC50, high ones a small IC50.

pIC50: −log10 of the molar value.

A short description of the test: Inhibition of rabbit platelet PDE5 using [3H]cGMP as substrate after 30 mins by scintillation proximity assay. More on the design: species or system Oryctolagus cuniculus. A general note: Scintillation proximity formats need no separation of bound from free tracer.
For `CCCc1nn(C)c2c(=O)[nH]c(-c3cc(S(=O)(=O)N4CCN(C)CC4)ccc3OCC)nc12`, the pIC50 is 8.48.

On to `CCCOc1ccc(S(=O)(=O)N2CCN(C)CC2)cc1-c1nc(CC)cc(=O)[nH]1`, for which the pIC50 is 7.29.

Take `CCCOc1ccc(S(=O)(=O)N2CCN(C)CC2)cc1-c1nc(CC)c(I)c(=O)[nH]1`: the pIC50 is 8.14.
